Bounds are passed on as bounds.

One may read the inhibition as the share of the control response that was lost under treatment.

Sequence of PI-3 kinase γ (P48736 whole entry): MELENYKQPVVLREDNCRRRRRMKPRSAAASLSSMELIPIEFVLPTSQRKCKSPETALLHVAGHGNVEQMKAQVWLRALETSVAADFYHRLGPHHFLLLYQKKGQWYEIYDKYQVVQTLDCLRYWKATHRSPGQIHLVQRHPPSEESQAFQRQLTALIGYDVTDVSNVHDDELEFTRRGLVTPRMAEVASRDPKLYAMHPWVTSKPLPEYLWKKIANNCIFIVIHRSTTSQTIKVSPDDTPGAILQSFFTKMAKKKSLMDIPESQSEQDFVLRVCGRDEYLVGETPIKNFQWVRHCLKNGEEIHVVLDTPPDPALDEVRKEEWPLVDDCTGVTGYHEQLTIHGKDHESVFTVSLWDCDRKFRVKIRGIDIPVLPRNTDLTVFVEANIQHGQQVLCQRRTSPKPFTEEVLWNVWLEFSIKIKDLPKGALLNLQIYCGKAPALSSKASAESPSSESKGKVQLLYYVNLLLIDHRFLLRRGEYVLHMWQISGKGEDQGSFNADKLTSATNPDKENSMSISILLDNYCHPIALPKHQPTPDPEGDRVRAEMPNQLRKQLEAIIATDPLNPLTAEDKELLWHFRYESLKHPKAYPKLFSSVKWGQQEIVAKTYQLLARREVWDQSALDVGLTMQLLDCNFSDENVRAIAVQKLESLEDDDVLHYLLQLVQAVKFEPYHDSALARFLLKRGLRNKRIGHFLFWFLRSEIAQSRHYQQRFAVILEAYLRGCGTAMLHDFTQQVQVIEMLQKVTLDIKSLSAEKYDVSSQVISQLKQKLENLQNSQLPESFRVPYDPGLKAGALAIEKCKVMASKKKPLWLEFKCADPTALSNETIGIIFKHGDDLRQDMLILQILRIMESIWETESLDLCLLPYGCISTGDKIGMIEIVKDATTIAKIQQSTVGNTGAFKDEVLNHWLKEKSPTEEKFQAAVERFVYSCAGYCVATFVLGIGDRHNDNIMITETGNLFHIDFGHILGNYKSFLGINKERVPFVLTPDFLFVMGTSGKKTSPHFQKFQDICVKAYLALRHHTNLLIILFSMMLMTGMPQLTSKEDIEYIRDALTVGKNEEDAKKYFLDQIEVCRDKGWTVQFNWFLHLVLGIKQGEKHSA

The target of this assay is PI-3 kinase γ (Homo sapiens, UniProt P48736). The experiment in a line: PI3Kγ inhibitory activity, PI3-kinase HTRF assay (inhibition ratio). Conditions: 0.5 h; PI3Kγ, compound at 50 μM. Format: biochemical. The protocol: The PI3Kγ inhibitory activity of a compound was evaluated using PI3-kinase HTRF™ assay (Millipore) according to the following procedure:
To each well of a testing plate, 5 μL of a compound solution containing 10% DMSO (200 μmol/L or 40 μmol/L as the concentration of the compound), 5 μL of a substrate solution (40 μmol/L phosphatidylinositol (4,5)-bisphosphate, 20 mmol/L MgCl2, 10 mmol/L DTT), and 5 μL of a enzyme solution (80 μg/mL PI-3 kinase γ, 10 mmol/L MgCl2, 5 mmol/L DTT) were added, and then allowed to stand for 10 minutes.
Then, 5 μL of a reaction solution (40 μmol/L ATP, 10 mmol/L MgCl2, 5 mmol/L DTT) was added thereto. After reacting for 30 minutes at room temperature, 5 μL of a solution containing EDTA and biotinylated phosphatidylinositol (3,4,5)-triphosphate were added to quench the reaction.
5 μL of a detection reagent containing a europium-labeled anti-GST antibody, the GST-tagged PH domain, and allophycocyanin-labeled streptavidin was added thereto. After 18 hours, HTRF (excitation wavelength: 330 nm, measured wavelengths: 620 nm and 665 nm) was measured.
HTRF ratio was defined as the value obtained by dividing the amount of fluorescence obtained at the measured wavelength 665 nm by the amount of fluorescence obtained at 620 nm. The HTRF ratio in the absence of a compound was defined as 100% activity and the HTRF ratio in the absence of PI-3 kinase γ was defined as 0% activity to calculate an inhibition ratio which was defined as the PI3Kγ inhibitory activity of a compound at 50 μmol/L or 10 μmol/L.
With `CC(=O)Nc1cc2n(n1)CCN2C(=O)c1ccccc1` [Compound I-2], the inhibition at 50 µM is at least 95%.

On to `COc1ccc(Nc2cc3n(n2)CCN3C(=O)c2ccccc2)cc1` [Compound I-4], for which the inhibition at 50 µM was at least 95%. For `CNC(=O)Nc1cc2n(n1)CCN2C(=O)c1ccccc1` [Compound I-5], the inhibition at 50 µM was 89%. Consider `CC(=O)Nc1cc2n(C(=O)c3ccccc3)ccn2n1` [Compound I-6], for which the inhibition at 50 µM was 90%.

For the compound `CC(=O)Nc1cc2n(C(=O)OC(C)(C)C)ccn2n1` [Compound I-7], the inhibition at 50 µM is at least 95%. In the case of `CNC(=O)Nc1cc2n(n1)CCN2C(=O)OC(C)(C)C` [Compound I-8] it was at least 95%; in that of `CNC(=O)Nc1cc2n(n1)CCN2C(=O)c1ccc2c(c1)CCO2` [Compound I-35], 77%; in that of `CNC(=O)Nc1cc2n(n1)CCN2C(=O)c1nc2ccccc2s1` [Compound I-40], 73%. In the case of `CNC(=O)Nc1cc2n(n1)CCN2c1ccccc1` [Compound I-50] it was at least 95%. In the case of `CNC(=O)Nc1cc2n(n1)CCN2C(=O)Oc1ccccc1` [Compound I-51] it was 87%; in that of `CCOC(=O)CNC(=O)Nc1cc2n(n1)CCN2C(=O)OC(C)(C)C` [Compound I-57], at least 95%; in that of `CC(C)(C)OC(=O)N1CCn2nc(NC(=O)NCC(=O)O)cc21` [Compound I-59], 94%. Turning to `CNC(=O)Nc1cc2n(n1)CCN(c1cncc(OC)c1)C2` [Compound I-65], the inhibition at 50 µM was at least 95%. On to `CNC(=O)Nc1nc2c(s1)CN(C(=O)OC(C)(C)C)CC2` [Compound I-66], for which the inhibition at 50 µM stood at 92%. For the compound `CNC(=O)Nc1cc2n(n1)CCN2c1cccc(Cl)c1` [Compound I-67], the inhibition at 50 µM is at least 95%. For `CNC(=O)Nc1cc2n(n1)CCN2c1cncc(OC)c1` [Compound I-79] the value was at least 95%; for `CNC(=O)Nc1cc2n(n1)CCN2c1cccnc1` [Compound I-80], at least 95%. For the compound `CNC(=O)Nc1cc2n(n1)CCN(c1cccc(C(=O)OC)c1)C2` [Compound I-81], the inhibition at 50 µM stood at 75%. For the compound `CCOC(=O)c1cccc(N2CCn3nc(NC(=O)NC)cc32)c1` [Compound I-83], the inhibition at 50 µM was at least 95%. In the case of `CNC(=O)Nc1cc2n(n1)CCN2c1cccc(-c2cnco2)c1` [Compound I-84] it was at least 95%; in that of `CCOC(=O)c1ccc(N2CCn3nc(NC(=O)NC)cc32)cc1` [Compound I-85], at least 95%. For the compound `CNC(=O)Nc1cc2n(n1)CCN(c1cccnc1)C2` [Compound I-86], the inhibition at 50 µM worked out at 90%. In the case of `CNC(=O)Nc1cc2n(n1)CCN2c1ccccn1` [Compound I-88], the inhibition at 50 µM came to 85%. In the case of `CNC(=O)Nc1cc2n(n1)CCN2c1cccc(C(=O)O)c1` [Compound I-91] it was at least 95%; in that of `CNC(=O)Nc1nc2c(s1)CN(c1nccc(OC)n1)CC2` [Compound I-93], 92%. In the case of `CNC(=O)Nc1nc2c(s1)CN(c1ccnc(Cl)n1)CC2` [Compound I-94], the inhibition at 50 µM is at least 95%. As for `CNC(=O)Nc1nc2c(s1)CN(c1nccc(C(F)(F)F)n1)CC2` [Compound I-95], the inhibition at 50 µM came out at 93%. In the case of `CNC(=O)Nc1cc2n(n1)CCN2c1ccc(C(=O)O)cc1` [Compound I-97] it was at least 95%; in that of `CNC(=O)Nc1nc2c(s1)CN(c1cc(C(=O)OC)nc(Cl)n1)CC2` [Compound I-100], at least 95%.

As for `CNC(=O)Nc1nc2c(s1)CN(c1cc(C(=O)O)nc(Cl)n1)CC2` [Compound I-101], the inhibition at 50 µM is at least 95%.

Turning to `CNC(=O)Nc1cc2n(n1)CCN2c1ccc(Cl)cc1` [Compound I-102], the inhibition at 50 µM was at least 95%. As for `CNC(=O)Nc1cc2n(n1)CCN2c1cccc(O)c1` [Compound I-105], the inhibition at 50 µM is at least 95%. As for `CNC(=O)Nc1nc2c(s1)CN(c1cc(Cl)ncn1)CC2` [Compound I-106], the inhibition at 50 µM is at least 95%. Take `CNC(=O)Nc1nc2c(s1)CN(c1cc(OC)nc(OC)n1)CC2` [Compound I-107]: the inhibition at 50 µM is at least 95%.

With `CNC(=O)Nc1nc2c(s1)CN(c1cc(C(N)=O)nc(Cl)n1)CC2` [Compound I-108], the inhibition at 50 µM was at least 95%. In the case of `CNC(=O)Nc1nc2c(s1)CN(c1cc(C(=O)NC3CCCC3)nc(Cl)n1)CC2` [Compound I-110] it was at least 95%; in that of `CNC(=O)Nc1nc2c(s1)CN(c1cc(Cl)nc(Cl)n1)CC2` [Compound I-111], at least 95%.

As for `CNC(=O)Nc1cc2n(n1)CCN2c1ccc(OC)cc1` [Compound I-114], the inhibition at 50 µM stood at 83%. `CNC(=O)Nc1cc2n(n1)CCN2c1nc2ccccc2s1` [Compound I-115]: the inhibition at 50 µM is at least 95%. Take `COC(=O)c1cc(N2CCc3nc(NC(C)=O)sc3C2)nc(Cl)n1` [Compound I-116]: the inhibition at 50 µM was at least 95%. Turning to `CC(C)(C)OC(=O)N1CCc2nc(NC(=O)Nc3cccc(Cl)c3)sc2C1` [Compound I-117], the inhibition at 50 µM is 76%. As to `CNC(=O)Nc1nc2c(s1)CN(c1cc(C(=O)NC)nc(Cl)n1)CC2` [Compound I-119], the inhibition at 50 µM is at least 95%.

For the compound `CNC(=O)Nc1nc2c(s1)CN(c1cc(N)nc(Cl)n1)CC2` [Compound I-122], the inhibition at 50 µM is 76%. Consider `CNC(=O)Nc1nc2c(s1)CN(c1cncc(Cl)n1)CC2` [Compound I-123], for which the inhibition at 50 µM is at least 95%.

In the case of `COC(=O)c1cc(N2CCc3nc(NC(=O)c4cccc(Cl)c4)sc3C2)nc(Cl)n1` [Compound I-126], the inhibition at 50 µM is at least 95%. In the case of `CNC(=O)Nc1cc2n(n1)CCN2c1cc(C(=O)OC)nc(Cl)n1` [Compound I-127] it was 79%; in that of `CNC(=O)Nc1nc2c(s1)CN(c1cc(Cl)nc(SC)n1)CC2` [Compound I-128], at least 95%; in that of `CCOC(=O)CNC(=O)Nc1cc2n(n1)CCN2c1ccccc1` [Compound I-129], 81%. As to `CC(=O)Nc1cc2n(n1)CCN2C(=O)OC(C)(C)C` [Compound I-130], the inhibition at 50 µM was at least 95%. In the case of `O=C(O)CNC(=O)Nc1cc2n(n1)CCN2c1ccccc1` [Compound I-132] it was at least 95%; in that of `CNC(=O)Nc1cc2n(n1)CCN(c1cc(OC)nc(OC)n1)C2` [Compound I-133], at least 95%; in that of `O=C(Nc1cc2n(n1)CCN2c1ccccc1)c1ccccc1` [Compound I-135], at least 95%.

On to `Nc1cc(N2CCc3nc(NC(=O)c4cccc(Cl)c4)sc3C2)nc(Cl)n1` [Compound I-137], for which the inhibition at 50 µM was found to be 87%. Turning to `CNC(=O)Nc1nc2c(s1)CN(c1cc(Oc3ccccc3)nc(OC)n1)CC2` [Compound I-138], the inhibition at 50 µM was at least 95%. Turning to `COc1cccc(N2CCn3nc(NC(C)=O)cc32)c1` [Compound I-139], the inhibition at 50 µM is at least 95%. Turning to `CC(=O)Nc1cc2n(n1)CCN2c1ccccc1` [Compound I-140], the inhibition at 50 µM was at least 95%.

Turning to `CNC(=O)Nc1cc2n(n1)CCN2c1ccncc1` [Compound I-141], the inhibition at 50 µM is at least 95%. Turning to `COc1cc(N2CCc3nc(NC(=O)NCCC(=O)OC(C)(C)C)sc3C2)nc(OC)n1` [Compound I-143], the inhibition at 50 µM was at least 95%. For the compound `CNC(=O)Nc1cc2n(n1)CCN2c1ccc(C(=O)OC)c(OC)c1` [Compound I-144], the inhibition at 50 µM is at least 95%.

For the compound `CNC(=O)Nc1nc2c(s1)CN(c1cc(OC)nc(N)n1)CC2` [Compound I-145], the inhibition at 50 µM was at least 95%. With `CNC(=O)Nc1cc2n(n1)CCN2c1cc(Br)cc(C(=O)OC)c1` [Compound I-146], the inhibition at 50 µM is at least 95%. For `CNC(=O)Nc1nc2c(s1)CN(c1cc(Oc3ccccc3)nc(SC)n1)CC2` [Compound I-147] the value was at least 95%. Turning to `CNC(=O)Nc1cc2n(n1)CCN2c1ccc(C(=O)O)c(OC)c1` [Compound I-148], the inhibition at 50 µM is at least 95%. Consider `CNC(=O)Nc1cc2n(n1)CCN2c1cc(Br)cc(C(=O)O)c1` [Compound I-149], for which the inhibition at 50 µM was at least 95%.

On to `CNC(=O)Nc1nc2c(s1)CN(c1cc(Oc3ccccc3)nc(OC(C)(C)C)n1)CC2` [Compound I-150], for which the inhibition at 50 µM was at least 95%. In the case of `CNC(=O)Nc1nc2c(s1)CN(c1cc(Oc3ccccc3)nc(O)n1)CC2` [Compound I-151] it was 80%. With `CNC(=O)Nc1cc2n(n1)CCN2c1cccc(CC(=O)OC(C)(C)C)c1` [Compound I-152], the inhibition at 50 µM is at least 95%. Turning to `CNC(=O)Nc1cc2n(n1)CCN2c1cccc(CC(=O)O)c1` [Compound I-153], the inhibition at 50 µM was determined as 74%.

As for `CNC(=O)Nc1cc2n(n1)CCN2c1cc(C(=O)OC)cc(-c2ccccc2)c1` [Compound I-161], the inhibition at 50 µM is at least 95%. For `CNC(=O)Nc1cc2n(n1)CCN2c1cc(Nc2ccccc2)cc(C(=O)OC)c1` [Compound I-162] the value was at least 95%.

Source of the values: patent US20110230472A1, “RING-FUSED AZOLE DERIVATIVE HAVING PI3K-INHIBITING ACTIVITY” (Shionogi & Co., Ltd., priority 2008, published 2011).
